From PubChem BioAssay AID179 (DTP/NCI, 2004) come the findings set out here.

What is called EC50 is the concentration giving half of the maximal effect. As a reminder, the IC50 is the concentration that inhibits the measured activity by half.

The experiment has as its system CEM cells HIV-1 protection, formazan growth assay. The experiment can be described thus: NCI AIDS Antiviral Assay. The following applies: for IC50: measured here: growth of uninfected CEM cells. The essentials: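 Category rules: moderately active means at least 50% protection on retest, and confirmed active means 100% protection reproducibly. The underlying data came from a formazan growth assay in HIV-1-infected CEM cells.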

Each structure is given as a SMILES string. Active and inactive are the calls of the source.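 Rule for the calls: active = compounds giving half or more protection of infected cells from virus-caused growth loss, again on retest; inactive = the rest.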 Where a SMILES comes first, the peptide text is derived from it. Bridges are numbered along the chain shown (N, C = ends). [ ]: non-standard residue; d: D form. Aib = CC(C)(N)C(=O)O; βAla = NCCC(=O)O

`NC(=O)c1cn(Cc2ccccc2)c(=O)n1Cc1ccccc1`: the EC50 is over 117 µM and the 50% inhibitory concentration (IC50) is over 117 µM.

Consider `Fc1ccc(CSc2cnnc(SCc3ccc(F)cc3)c2SCc2ccc(F)cc2)cc1`, for which the EC50 is over 200 µM and the 50% inhibitory concentration (IC50) turned out to be 39.8 µM.

Take `N#CCC(=O)N/N=C\C(O)C(O)C(O)C(O)CO` (stereo not drawn): the result was inactive.

With `COc1ccc2cc(C(C)C(=O)N3C(=O)OCC3(C)C)ccc2c1` (stereo not drawn), the EC50 was over 200 µM and the IC50 amounted to 91.2 µM.

With `COc1ccc(/C=N/NC(=O)c2cnc3[nH]c(=O)n(C)c(=O)c3c2)cc1`, the EC50 was over 200 µM and the IC50 is over 200 µM.

Consider `COc1cc(C2c3cc4c(cc3OC(NN)C2C)OCO4)cc(OC)c1O` (stereo not drawn), for which the result was inactive.

With `CSC1=Nc2cc3c(cc2C(=O)N2CC(OC(C)=O)CC12)OCO3` (stereo not drawn), the EC50 was over 200 µM and the IC50 is over 200 µM.

Take `CC(C)(CN1CCCCC1)C(=O)CC(SCCS(=O)(=O)O)c1ccc(Br)cc1` (stereo not drawn): the EC50 was over 427 µM and the IC50 was determined as 1.74 µM.

On to `CC(=O)NC1C(OC2C(CO)OC(OCC3OC(n4ccc(N)nc4=O)C(O)C3O)C(NC(C)=O)C2O)OC(CO)C(O)C1O` (stereo not drawn), for which the EC50 is over 200 µM and the half-maximal inhibitory concentration (IC50) stood at 11.2 µM.

On to `CNS(=O)(=O)NNS(=O)(=O)c1ccc(Cl)cc1`, for which the EC50 was over 120 µM and the IC50 was over 120 µM.

Regarding `CC(=O)N1c2ccccc2[C@H]2CCc3c([nH]c4ccccc34)[C@H]21`, the EC50 was over 20 µM and the IC50 amounted to 12.9 µM.

Turning to `NS(=O)(=O)c1cc2c(cc1Cl)NC(CC1CCCC1)NS2(=O)=O` (stereo not drawn), the EC50 was over 200 µM and the IC50 was over 200 µM.

As to `C/C(CCn1[nH]c(=O)ccc1=O)=N\N=C(N)N`, the EC50 was over 4.37 µM and the half-maximal inhibitory concentration (IC50) is over 4.37 µM.

For the molecule `O=c1c(SCc2ccc(Cl)cc2Cl)c(SCc2ccc(Cl)cc2Cl)cnn1-c1ccccc1`, the EC50 was over 46.8 µM and the IC50 was over 46.8 µM.

As for `O=C1/C(=C/c2ccc(F)cc2)CNC/C1=C\c1ccc(F)cc1`, the EC50 was over 15.1 µM and the IC50 was found to be 0.288 µM.

On to `COc1cc2c(c(OC)c1OC)-c1ccc(OC)c(=O)cc1C(NC(=O)c1ccc(N=[N+]=[N-])cc1)CC2` (stereo not drawn), for which the EC50 was over 200 µM and the IC50 amounted to 5.89 µM.

For `NC(=O)CCC(N=c1c2ccccc2n(O)c2ccccc12)C(=O)O` (stereo not drawn), the outcome was inactive.

Consider `O=C(O)C12C3CCC(CC3)C1(C(=O)O)C1CCC2C1` (stereo not drawn), for which the EC50 is over 200 µM and the IC50 is over 200 µM.

`COc1cc(N)c2c(c1)SCCC(=O)N2`: the EC50 was over 200 µM and the IC50 was over 200 µM.

In the case of `CCOP(=O)(OCC)/C(C#N)=C/c1ccc(Br)cc1`, the EC50 was over 275 µM and the IC50 was 162 µM.

For the molecule `N#CC1=C2Oc3ccccc3N2C(c2ccccc2)C(C#N)=C1N` (stereo not drawn), the EC50 was over 200 µM and the half-maximal inhibitory concentration (IC50) was over 200 µM.

`CCCCCCCCCCCc1c(O)c(O)cc2nc3cc(Cl)c(Cl)cc3nc12`: the EC50 was over 16.6 µM and the 50% inhibitory concentration (IC50) came out at 5.37 µM.

For the molecule `Cc1ccc(S(=O)(=O)C2=c3ncccc3=C3C(=O)c4ccccc4C(=O)C32)cc1` (stereo not drawn), the outcome was inactive.

Take `CC1CC(=O)C(CC(=O)O)C1C(C(=O)C(=O)Nc1c(C#N)cccc1[N+](=O)[O-])[N+](=O)[O-]` (stereo not drawn): the outcome was inactive.

For the molecule `O=[N+]([O-])/C=C/c1c[nH]c2c1ccc1ccccc12`, the EC50 is over 200 µM and the IC50 stood at 4.27 µM.

In the case of `CSc1ncc2c(C#N)c3ccccn3c(=O)c2n1`, the EC50 is over 200 µM and the half-inhibitory concentration (IC50) is over 200 µM.

In the case of `CC(C)C(=O)N[C@@H](C)C(=O)N(Cc1ccc2ccccc2c1)N=O`, the outcome was inactive.

As to `CO/C(=C/C(=O)c1ccccc1)C(=O)c1ccccc1`, the EC50 was over 115 µM and the concentration for half-maximal inhibition (IC50) stood at 61.7 µM.

For the molecule `CC1(C)OC(=O)C2(O1)C(=O)C1CCCCC12` (stereo not drawn), the EC50 was over 200 µM and the IC50 was over 200 µM.

As for `CC(=O)OCC12C(OC(C)=O)C[C@@H](C)C3(CC(c4ccoc4)OC3=O)C1CCC(OC(C)=O)C21CO1` (stereo partly drawn), the EC50 was over 200 µM and the half-inhibitory concentration (IC50) is over 200 µM.

Turning to `c1ccc(SCCC(Sc2ccccc2)Sc2ccccc2)cc1`, the EC50 is over 200 µM and the half-inhibitory concentration (IC50) is 93.3 µM.

Consider `Cc1ccc2nn(-c3ccc(O)cc3)[n+]([O-])c2c1`, for which the EC50 was over 200 µM and the IC50 is over 200 µM.

With `O=C(CCc1cc(-c2ccco2)n(-c2ccc([N+](=O)[O-])cc2[N+](=O)[O-])n1)Nc1ccccc1`, the EC50 is over 41.7 µM and the half-maximal inhibitory concentration (IC50) was over 41.7 µM.

As for `O=C(OCC1CO1)c1cccs1` (stereo not drawn), the result was inactive.

In the case of `COc1ccc2c(c1)[n+](=O)c(C(=O)C/C(=N/NC(=O)c1ccccc1O)C(=O)Nc1ccc(Cl)c(C(F)(F)F)c1)c(C)n2[O-]`, the EC50 was over 1.2 µM and the half-inhibitory concentration (IC50) is over 1.2 µM.

In the case of `O=C(Nc1cc(Cl)cc(Cl)c1)/C(Cc1nc2ccccc2[nH]c1=O)=N/NC(=O)c1ccncc1`, the EC50 was over 132 µM and the IC50 is over 132 µM.

For `O=C(Nc1ccc2c(O)c(N=Nc3ccc4c(O)cc(S(=O)(=O)O)cc4c3)c(S(=O)(=O)O)cc2c1)c1ccccc1`, the EC50 was 18.6 µM and the IC50 worked out at 50.1 µM.

Turning to `CC(C)=CCC1(c2ccccc2)Oc2ccccc2-n2cccc2C1=O` (stereo not drawn), the EC50 is over 200 µM and the IC50 was 138 µM.

With `C/C(=N\NC(=O)c1ccncc1)c1cccc(C(F)(F)F)c1`, the EC50 was over 85.1 µM and the half-inhibitory concentration (IC50) was over 85.1 µM.

For the molecule `C/C(=N\NC(=S)N1CCN(C2CCCCCC2)CC1)c1ccccn1`, the EC50 is over 138 µM and the concentration for half-maximal inhibition (IC50) came out at 0.955 µM.

Consider `CC1CCC2c3c([nH]c4ccccc34)C3C(=O)N(c4ccccc4)C(=O)C3C2C1` (stereo not drawn), for which the result was inactive.

With `O=C1NC(=O)/C(=C\c2cccc([N+](=O)[O-])c2)N1`, the EC50 was over 200 µM and the IC50 turned out to be 158 µM.

Take `COCN1C(=O)[C@@H]2CCCN2C(=O)c2cc(N)ccc21`: the EC50 was over 200 µM and the IC50 was over 200 µM.

As to `O=C1C2CC3OC3CC2C(=O)N1CCN1C(=O)C2CC3OC3CC2C1=O` (stereo not drawn), the EC50 is over 10.5 µM and the 50% inhibitory concentration (IC50) is over 10.5 µM.

Turning to `CC(=C\c1ccccc1)/C=C1/NC(=O)NC1=O`, the EC50 was over 200 µM and the IC50 turned out to be 129 µM.

Consider `Cn1ccc2c3c(ccc21)C(N1CCOCC1)=CS(=O)(=O)O3`, for which the result was inactive.

Take `N#Cc1c2c(c(N=P(c3ccccc3)(c3ccccc3)c3ccccc3)n3c1nc1ccccc13)CCCC2`: the EC50 is over 1.05 µM and the IC50 was over 1.05 µM.

Take `O=[N+]([O-])c1ccc(O)c(CN(Cc2ccccc2)Cc2c(O)ccc3ccccc23)c1`: the EC50 is over 200 µM and the IC50 was over 200 µM.

Consider `O=C(NC1C(=O)NNC1c1ccccc1Cl)c1ccccc1` (stereo not drawn), for which the EC50 is over 158 µM and the IC50 is over 158 µM.

Regarding `COc1ccc(NC(=O)C(=O)NNC(=O)c2sc(NNC(C)=O)nc2C)c([N+](=O)[O-])c1`, the EC50 was over 30.2 µM and the IC50 is over 30.2 µM.

Regarding `COc1ccc2nc(C)cc(NCCCCCCCCCNc3cc(C)nc4ccc(OC)cc34)c2c1`, the EC50 was over 33.1 µM and the IC50 is 0.891 µM.

Turning to `CCCCN=C(c1ccccc1)N1CCOCC1`, the EC50 is over 200 µM and the half-maximal inhibitory concentration (IC50) was over 200 µM.

Consider `CNc1cc2oc(=O)cc(C)c2cc1C`, for which the EC50 was over 67.6 µM and the concentration for half-maximal inhibition (IC50) was over 67.6 µM.

As for `CC(=O)O[C@]1(C(C)=O)CC[C@H]2[C@@H]3C=C(Cl)C4=CC(=O)[C@@H]5C[C@@H]5[C@]4(C)[C@H]3CC[C@@]21C`, the EC50 is over 200 µM and the half-inhibitory concentration (IC50) was over 200 µM.

For the molecule `CC(C)(C)c1cc2c(OP(c3ccccc3)c3ccccc3)c(c1)Cc1cc(C(C)(C)C)cc(c1OP(c1ccccc1)c1ccccc1)Cc1cc(C(C)(C)C)cc(c1OP(c1ccccc1)c1ccccc1)Cc1cc(C(C)(C)C)cc(c1OP(c1ccccc1)c1ccccc1)C2`, the EC50 was over 1.05 µM and the IC50 was over 1.05 µM.

`Cc1cc(S(=O)(=O)Nc2nnc3c4c(C)csc4ncn23)c(S)cc1Cl`: the EC50 is over 200 µM and the IC50 was 110 µM.

`Cc1nc(-n2nc(-c3ccccc3)cc2-c2ccccc2)sc1C(=O)/C=C/c1ccc([N+](=O)[O-])cc1`: the EC50 is over 38 µM and the IC50 stood at 30.9 µM.

As for `C[C@]12CCc3nonc3C1CC[C@@H]1C2CC[C@@]2(C)C1CC[C@@H]2O` (stereo partly drawn), the EC50 was over 214 µM and the IC50 stood at 174 µM.

Turning to `CC1(C)NC(=O)C(NC(=O)C(N)CC(=O)O)CCCCNC(=O)CCNC1=O` (stereo not drawn) (H-DK[Aib][βAla]; lactam 2-C; configuration not given here), the EC50 was over 200 µM and the 50% inhibitory concentration (IC50) was over 200 µM.

As to `CCOC(=O)C1CCN(C(=O)c2ccccc2)c2scc(-c3ccccc3)c2C1=O` (stereo not drawn), the EC50 is over 100 µM and the half-inhibitory concentration (IC50) worked out at 13.8 µM.

As to `O=C(O)/C=C/C(=O)Nc1ccccc1-n1cccc1`, the EC50 was over 200 µM and the IC50 is over 200 µM.

In the case of `CCOC(=O)C1SC(=Nc2ccc(Cl)c(Cl)c2)N=C1C` (stereo not drawn), the EC50 was over 11.5 µM and the IC50 is over 11.5 µM.

Turning to `CC1=C2CC(C)(C)/C=C\C(=O)/C(C)=C\C3=C[C@H](C)C[C@]3(O2)C1=O`, the EC50 is over 0.2 µM and the IC50 was 0.0955 µM.

Consider `CCOC(=O)CCCN(c1[nH]c(C)c(C)c1C#N)S(=O)(=O)c1ccc(C)cc1`, for which the EC50 is over 200 µM and the IC50 was determined as 81.3 µM.

With `C[C@@H](c1ccccc1)N1CN(C(=O)OCc2ccccc2)C(CO)C1=O` (stereo partly drawn), the EC50 is over 200 µM and the IC50 came to 186 µM.

As for `Nc1nc(NNc2ccc(Cl)c(Cl)c2)cc(=O)[nH]1`, the EC50 was over 200 µM and the concentration for half-maximal inhibition (IC50) is 49 µM.

For `Cc1cc(CS(=O)(=O)/C=C/c2ccccc2[N+](=O)[O-])c(CS(=O)(=O)/C=C/c2ccccc2[N+](=O)[O-])cc1C`, the EC50 is over 11.5 µM and the 50% inhibitory concentration (IC50) is over 11.5 µM.

Regarding `N=C(N)c1ccc(OCCCOc2ccc(C(=N)N)cc2)cc1`, the EC50 is over 200 µM and the IC50 was determined as 17 µM.

As to `OC1(C(Sc2ccccc2)Sc2ccccc2)CCCCCC1`, the outcome was inactive.
